Source: US20100120717A1, “KINASE INHIBITORS” (priority 2006, published 2010)

What follows are compounds tested against Aurora B/INCENP (Homo sapiens, UniProt Q96GD4) (assay: Determination of inhibition of AIK: Aurora B/INCENP Direct Fluorescence Polarization (IMAP) assay). Settings: 10 uM ATP, 0.8 nM Aurora B/INCENP, 45 min at room temperature; read-out: IC50 of Exemplified Compounds Against AIK B.
Type: biochemical
Protocol: Detection of the reaction product is performed by addition of Progressive IMAP binding reagent (Molecular Devices). Reaction product may be determined quantitatively by FP using an Analyst HT plate reader (Molecular Devices) with an excitation wavelength at 485 nm and emission at 530 nm and using a Fluorescein 505 dichroic mirror.
The assay reaction may be initiated as follows: 2 ul of (3×) 300 nM Fl-Peptide/30 uM ATP was added to each well of the plate, followed by the addition of 2 ul of (3×) inhibitor (2 fold serial dilutions for 11 data points for each inhibitor) containing 15% DMSO. Two microliters of (3×) 2.4 nM AuroraB/INCENP solution may be added to initiate the reaction (final enzyme concentration was 0.8 nM for Aurora B/INCENP). The reaction mixture may then be incubated at room temperature for 45 min, and quenched and developed by addition of 20 ul of 1 to 400 diluted Progressive IMAP binding reagent in 1× proprietary Progressive IMAP binding buffer A. Fluorescence polarization readings of the resulting reaction mixtures may be measured after a 60-minute incubation at room temperature.
IC50 values may be calculated by non-linear curve fitting of the compound concentrations and fluorescent polarization values to the standard IC50 equation.

Sequence of Aurora B/INCENP (Q96GD4 whole entry): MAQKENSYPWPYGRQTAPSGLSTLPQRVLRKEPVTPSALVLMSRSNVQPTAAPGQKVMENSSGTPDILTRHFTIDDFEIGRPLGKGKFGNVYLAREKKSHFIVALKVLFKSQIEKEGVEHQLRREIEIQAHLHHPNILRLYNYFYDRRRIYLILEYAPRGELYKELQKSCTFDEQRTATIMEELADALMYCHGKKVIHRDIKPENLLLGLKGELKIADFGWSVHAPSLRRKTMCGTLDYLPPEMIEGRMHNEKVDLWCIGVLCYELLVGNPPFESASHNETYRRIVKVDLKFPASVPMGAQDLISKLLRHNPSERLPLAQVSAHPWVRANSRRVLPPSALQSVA
Sequence of Aurora B/INCENP (Q9NQS7 whole entry partner): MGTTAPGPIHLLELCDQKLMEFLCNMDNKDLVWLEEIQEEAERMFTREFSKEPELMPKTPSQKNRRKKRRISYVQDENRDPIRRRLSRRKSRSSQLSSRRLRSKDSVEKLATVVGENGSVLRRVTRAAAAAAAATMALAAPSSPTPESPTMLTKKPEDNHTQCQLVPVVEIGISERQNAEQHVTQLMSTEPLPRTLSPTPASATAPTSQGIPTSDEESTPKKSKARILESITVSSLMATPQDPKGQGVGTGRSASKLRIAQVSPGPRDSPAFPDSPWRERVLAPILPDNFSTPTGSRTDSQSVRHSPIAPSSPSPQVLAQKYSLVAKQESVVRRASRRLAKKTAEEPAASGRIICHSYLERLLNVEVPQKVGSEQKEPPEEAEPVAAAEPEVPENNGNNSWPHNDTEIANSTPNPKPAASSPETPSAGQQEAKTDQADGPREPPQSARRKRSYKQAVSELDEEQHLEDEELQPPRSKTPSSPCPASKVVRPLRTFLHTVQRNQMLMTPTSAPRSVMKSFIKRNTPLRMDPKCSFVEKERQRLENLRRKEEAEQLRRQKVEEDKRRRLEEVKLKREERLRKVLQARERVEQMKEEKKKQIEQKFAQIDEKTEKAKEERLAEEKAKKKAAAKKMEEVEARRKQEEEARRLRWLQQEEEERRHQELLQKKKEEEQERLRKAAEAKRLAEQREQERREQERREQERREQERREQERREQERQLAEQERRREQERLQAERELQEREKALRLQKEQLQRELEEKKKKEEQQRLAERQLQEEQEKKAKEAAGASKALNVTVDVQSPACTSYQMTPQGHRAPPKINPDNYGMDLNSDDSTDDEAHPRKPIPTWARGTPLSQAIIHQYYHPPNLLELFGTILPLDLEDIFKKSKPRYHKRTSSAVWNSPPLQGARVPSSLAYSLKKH

| IC50 | SMILES |
| --- | --- |
| ≥ 11 nM | CCS(=O)(=O)c1cccc(-c2ccc(OCC(F)(F)F)c3[nH]c4ncc(C)cc4c23)c1 [Compound 173, 5-(3-(ethylsulfonyl)phenyl)-3-methyl-8-(2,2,2-trifluoroethoxy)-9H-pyrido[2,3-b]indole] |
| 6 to 10 nM | CCS(=O)(=O)c1cccc(-c2ccc(C)c3[nH]c4ncc(C)cc4c23)c1 [Compound 18, 5-(3-(ethylsulfonyl)phenyl)-3,8-dimethyl-9H-pyrido[2,3-b]indole] |
| 6 to 10 nM | CCS(=O)(=O)c1cccc(-c2cc(C(=O)NCCN(C)C)cc3[nH]c4ncc(C)cc4c23)c1 [Compound 142, 5-(3-Ethanesulfonyl-phenyl)-3-methyl-9H-pyrido[2,3-b]indole-7-carboxylic acid (2-dimethylamino-ethyl)-amide] |
| 6 to 10 nM | Cc1cnc2[nH]c3c(C)c(C(=O)NC4CCN(C)CC4)cc(-c4cccc(NC(=O)C5CC5)c4)c3c2c1 [Compound 120, 5-(3-(cyclopropanecarboxamido)phenyl)-3,8-dimethyl-N-(1-methyl-piperidin-4-yl)-9H-pyrido[2,3-b]indole-7-carboxamide] |
| ≥ 11 nM | c1ccc(-c2cccc3[nH]c4ncccc4c23)cc1 [Compound 5, 5-phenyl-9H-pyrido[2,3-b]indole] |
| 6 to 10 nM | CCOc1ccc(-c2cccc(S(=O)(=O)CC)c2)c2c1[nH]c1ncc(C)cc12 [Compound 171, 8-ethoxy-5-(3-(ethylsulfonyl)phenyl)-3-methyl-9H-pyrido[2,3-b]indole] |
| ≥ 11 nM | Cc1cnc2[nH]c3c(OCC4CCN(C)CC4)ccc(-c4cccc(C(=O)NC5CC5)c4)c3c2c1 [Compound 178, N-cyclopropyl-3-(3-methyl-8-((1-methylpiperidin-4-yl)methoxy)-9H-pyrido[2,3-b]indol-5-yl)benzamide] |
| 6 to 10 nM | CCS(=O)(=O)c1cccc(-c2ccc(OC[C@H](O)CN(C)C)c3[nH]c4ncc(C)cc4c23)c1 [Compound 232, (R)-1-(dimethylamino)-3-(5-(3-(ethylsulfonyl)phenyl)-3-methyl-9H-pyrido[2,3-b]indol-8-yloxy)propan-2-ol] |
| 6 to 10 nM | Cc1cnc2[nH]c3c(C)c(C(=O)NC4CCN(C)CC4)cc(-c4cccc(S(=O)(=O)C5CC5)c4)c3c2c1 [Compound 154, 5-(3-(cyclopropylsulfonyl)phenyl)-3,8-dimethyl-N-(1-methylpiperidin-4-yl)-9H-pyrido[2,3-b]indole-7-carboxamide] |
| 6 to 10 nM | CCS(=O)(=O)c1cccc(-c2cnc(OCCCN(C)C)c3[nH]c4ncc(C)cc4c23)c1 [Compound 52, {3-[5-(3-Ethanesulfonyl-phenyl)-3-methyl-9H-dipyrido[2,3-b;4′,3′-d]pyrrol-8-yloxy]-propyl}-dimethyl-amine] |
| ≥ 11 nM | CCNS(=O)(=O)c1cccc(-c2cc(C(=O)NC3CCN(C)CC3)c(C)c3[nH]c4ncc(C)cc4c23)c1 [Compound 153] |
| ≤ 5 nM | Cc1cnc2[nH]c3c(OC[C@H](CN(C)C)OP(=O)(O)O)ccc(-c4cccc(S(=O)(=O)C5CC5)c4)c3c2c1 [Compound 314, (S)-1-(5-(3-(cyclopropylsulfonyl)phenyl)-3-methyl-9H-pyrido[2,3-b]indol-8-yloxy)-3-(dimethylamino)propan-2-yl dihydrogen phosphate] |
| ≤ 5 nM | Cc1cnc2[nH]c3c(OC[C@@H](CN(C)C)OP(=O)(O)O)ccc(-c4cccc(S(=O)(=O)C5CC5)c4)c3c2c1 [Compound 315, (R)-1-(5-(3-(cyclopropylsulfonyl)phenyl)-3-methyl-9H-pyrido[2,3-b]indol-8-yloxy)-3-(dimethylamino)propan-2-yl dihydrogen phosphate] |
| ≥ 11 nM | CCS(=O)(=O)c1cccc(-c2cc(C(=O)NCCCN3CCN(C)CC3)c(C)c3[nH]c4ncc(C)cc4c23)c1 [Compound 95, 5-(3-(ethylsulfonyl)phenyl)-3,8-dimethyl-N-(3-(4-methylpiperazin-1-yl)propyl)-9H-pyrido[2,3-b]indole-7-carboxamide] |
| ≥ 11 nM | CCS(=O)(=O)c1cccc(-c2cc(C(=O)N[C@H]3CCCN(C)C3)c(C)c3[nH]c4ncc(C)cc4c23)c1 [Compound 117, (S)-5-(3-(ethylsulfonyl)phenyl)-3,8-dimethyl-N-(1-methylpiperidin-3-yl)-9H-pyrido[2,3-b]indole-7-carboxamide] |
| ≥ 11 nM | Cc1cnc2[nH]c3c(OCCCN(C)C)ccc(-c4cccc(NC(=O)C5CC5)c4)c3c2c1 [Compound 195, N-(3-(8-(3-(dimethylamino)propoxy)-3-methyl-9H-pyrido[2,3-b]indol-5-yl)phenyl)cyclopropanecarboxamide] |
| 6 to 10 nM | CCS(=O)(=O)c1cccc(-c2ccc(OCC3CCN(C)CC3)c3[nH]c4ncc(C)cc4c23)c1 [Compound 177, 5-(3-(ethylsulfonyl)phenyl)-3-methyl-8-((1-methylpiperidin-4-yl)methoxy)-9H-pyrido[2,3-b]indole] |
| ≥ 11 nM | CCN1CCC(NC(=O)c2cc(-c3cccc(S(=O)(=O)CC)c3)c3c([nH]c4ncc(C)cc43)c2C)CC1 [Compound 105, N-(1-ethylpiperidin-4-yl)-5-(3-(ethylsulfonyl)phenyl)-3,8-dimethyl-9H-pyrido[2,3-b]indole-7-carboxamide] |
| 6 to 10 nM | CCNS(=O)(=O)c1cccc(-c2ccc(OCCCN(C)C)c3[nH]c4ncc(C)cc4c23)c1 [Compound 295, 3-(8-(3-(dimethylamino)propoxy)-3-methyl-9H-pyrido[2,3-b]indol-5-yl)-N-ethylbenzenesulfonamide] |
| 6 to 10 nM | CCS(=O)(=O)c1cccc(-c2cc(C(=O)NCCOC)c(C)c3[nH]c4ncc(C)cc4c23)c1 [Compound 90, N-(2-(methoxy)ethyl)-5-(3-(ethylsulfonyl)phenyl)-3,8-dimethyl-9H-pyrido[2,3-b]indole-7-carboxamide] |

| SMILES | IC50 |
| --- | --- |
| CCS(=O)(=O)c1cccc(-c2cc(C(=O)NC3CCN(C)CC3)c(C)c3[nH]c4ncc(C)cc4c23)c1 [Compound 88, 5-(3-(ethylsulfonyl)phenyl)-3,8-dimethyl-N-(1-methylpiperidin-4-yl)-9H-pyrido[2,3-b]indole-7-carboxamide] | 6 to 10 nM |
| CCS(=O)(=O)c1cccc(-c2cnc(OCC3CCN(C)CC3)c3[nH]c4ncc(C)cc4c23)c1 [Compound 54, 5-(3-Ethanesulfonyl-phenyl)-3-methyl-8-(1-methyl-piperidin-4-ylmethoxy)-9H-dipyrido[2,3-b;4′,3′-d]pyrrole] | 6 to 10 nM |
